Read-outs that look alike come from different tables or passages of the source.
Assays:
[1] = system: acutely dissociated and purified rat OPCs; experiment: Acute OL differentiation assay (MBP expression/cell, immunofluorescent image quantification); assay type: cell-based; conditions: for EC50: average EC50 for induction of OL differentiation from independent biological replicates, eight concentrations; for hit in OL differentiation assay, MRF-TMC: ● = confirmed hit in this paper's assay; for activation at 0.4 µM: 0.4 uM test compound, read-out: OL differentiation, 0.4 uM (% Quet)
How it was run: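 Oligodendrocyte precursor cells were enriched from P6-P7 Sprague–Dawley rat brains by immunopanning (RAN-2 and GalC depletion, O4 selection), plated at 5000 cells/well in serum-free, mitogen-free differentiation media on PDL/laminin 96-well view plates, centrifuged at 200×g, and pre-incubated 1–2 h before test compounds were added in quadruplicate. On DIV4, cells were fixed, stained for MBP and DAPI, imaged automatically, and MBP expression per cell was quantified.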

expanded OPCs = experiment: cells; conditions: for viability at 0.1 µM / viability at 1 µM / viability at 10 µM: Rattus norvegicus, 72 h
How it was run: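 Expanded OPCs seeded at 10,000 cells/well in differentiation media, then exposed to NCC library compounds at 10, 1 and 0.1 µM (quadruplicate, 0.1% DMSO) for three days. Viability read as alamarBlue fluorescence (560/590 nm) after 4 h at 37 °C; tunicamycin 5 ng/ml served as toxicity control.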

[2] = Rattus norvegicus, 2 uM test compound, relative to quetiapine, sheet "All OLga data", read-out: OL differentiation, 2 uM (% Quet)
[3] = Rattus norvegicus, 10 uM test compound, relative to quetiapine, sheet "All OLga data", read-out: OL differentiation, 10 uM (% Quet)
[4] = read-out: 0.1 µM (% DMSO), alamarBlue viability of expanded OPCs, compound at 0.1 µM, sheet All Tox data
[5] = read-out: 1 µM (% DMSO), alamarBlue viability of expanded OPCs, compound at 1 µM, sheet All Tox data
[6] = read-out: 10 µM (% DMSO), alamarBlue viability of expanded OPCs, compound at 10 µM, sheet All Tox data
[7] = Rattus norvegicus, test compound at 2 uM, MBP expression relative to quetiapine, NCC library screen, sheet "All OLga data", read-out: 2 uM (% Quet)
[8] = Rattus norvegicus, test compound at 10 uM, MBP expression relative to quetiapine, NCC library screen, sheet "All OLga data", read-out: 10 uM (% Quet)
[9] = alamarBlue viability of expanded OPCs, compound at 0.1 µM, relative to DMSO control
[10] = alamarBlue viability of expanded OPCs, compound at 1 µM, relative to DMSO control
[11] = alamarBlue viability of expanded OPCs, compound at 10 µM, relative to DMSO control
[12] = read-out: 0.1 µM (% DMSO), alamarBlue viability, NCC library compound at 0.1 µM, sheet "All Tox data"
[13] = read-out: 1 µM (% DMSO), alamarBlue viability, NCC library compound at 1 µM, sheet "All Tox data"
[14] = read-out: 10 µM (% DMSO), alamarBlue viability, NCC library compound at 10 µM, sheet "All Tox data"
[15] = Rattus norvegicus, test compound at 2 uM, NCC library screen, sheet "All OLga data", relative to quetiapine, read-out: 2 uM (% Quet)
[16] = Rattus norvegicus, test compound at 10 uM, NCC library screen, sheet "All OLga data", relative to quetiapine, read-out: 10 uM (% Quet)
[17] = Rattus norvegicus, relative to quetiapine, sheet "All OLga data"

## O=C(O)CCCc1ccc(N(CCCl)CCCl)cc1 [Chlorambucil]
[1]; Rattus norvegicus, read-out: 2 uM (% Quet)
  activation at 2 µM: -18.6%
[1]; Rattus norvegicus, read-out: 10 uM (% Quet)
  activation at 10 µM: -105%
Expanded OPCs; read-out: 0.1 µM (% DMSO)
  viability at 0.1 µM: 88%
Expanded OPCs; read-out: 1 µM (% DMSO)
  viability at 1 µM: 80.8%
Expanded OPCs; read-out: 10 µM (% DMSO)
  viability at 10 µM: 57.4%

## CC(C)[C@H]1CC[C@H](C(=O)N[C@H](Cc2ccccc2)C(=O)O)CC1 [Nateglinide]
[1]; [2]
  activation at 2 µM: -26.4%
[1]; [3]
  activation at 10 µM: -12.7%
Expanded OPCs; [4]
  viability at 0.1 µM: 93.4%
Expanded OPCs; [5]
  viability at 1 µM: 92.4%
Expanded OPCs; [6]
  viability at 10 µM: 99.5%

## Brc1c(NC2=NCCN2)ccc2nccnc12 [Brimonidine]
[1]; [7]
  activation at 2 µM: 21.9%
[1]; [8]
  activation at 10 µM: 8.8%
Expanded OPCs; [9]
  0.1 µM (% DMSO): 91.9 % DMSO
Expanded OPCs; [10]
  1 µM (% DMSO): 99.2 % DMSO
Expanded OPCs; [11]
  10 µM (% DMSO): 95.4 % DMSO

## COc1cc(C[C@@H](CO)[C@H](CO)Cc2ccc(O)c(OC)c2)ccc1O [Secoisolariciresinol]
[1]; test compound at 2 uM, NCC library screen, sheet "All OLga data", relative to quetiapine
  2 uM (% Quet): -3.9 % Quet
[1]; test compound at 10 uM, NCC library screen, sheet "All OLga data", relative to quetiapine
  10 uM (% Quet): 12.5 % Quet
Expanded OPCs; alamarBlue viability, NCC library compound at 0.1 µM, sheet "All Tox data"
  0.1 µM (% DMSO): 92.4 % DMSO
Expanded OPCs; alamarBlue viability, NCC library compound at 1 µM, sheet "All Tox data"
  1 µM (% DMSO): 88.4 % DMSO
Expanded OPCs; alamarBlue viability, NCC library compound at 10 µM, sheet "All Tox data"
  10 µM (% DMSO): 78.5 % DMSO

## Cl.NC1CCN(c2cccc(Cl)n2)CC1 [SR57227A]
[1]; 2 uM test compound, relative to quetiapine, sheet "All OLga data"
  OL differentiation, 2 uM (% Quet): 13.8 % Quet
[1]; 10 uM test compound, relative to quetiapine, sheet "All OLga data"
  OL differentiation, 10 uM (% Quet): 30.8 % Quet
Expanded OPCs; alamarBlue viability of expanded OPCs, compound at 0.1 µM, sheet All Tox data
  0.1 µM (% DMSO): 85.7 % DMSO
Expanded OPCs; alamarBlue viability of expanded OPCs, compound at 1 µM, sheet All Tox data
  1 µM (% DMSO): 88.3 % DMSO
Expanded OPCs; alamarBlue viability of expanded OPCs, compound at 10 µM, sheet All Tox data
  10 µM (% DMSO): 77.5 % DMSO

## CCOC(=O)c1ccc(OC(=O)CCCCCNC(=N)N)cc1 [Gabexate]
[1]; [2]
  activation at 2 µM: 12.6%
[1]; [3]
  activation at 10 µM: 7.2%
Expanded OPCs; [4]
  viability at 0.1 µM: 105%
Expanded OPCs; [5]
  viability at 1 µM: 109%
Expanded OPCs; [6]
  viability at 10 µM: 123%

## O=C(O)c1cc(=O)c2c(OCC(O)COc3cccc4oc(C(=O)O)cc(=O)c34)cccc2o1 [Cromolyn Sodium]
[1]; [7]
  activation at 2 µM: -3%
[1]; [8]
  activation at 10 µM: 3.7%
Expanded OPCs; [9]
  0.1 µM (% DMSO): 93.1 % DMSO
Expanded OPCs; [10]
  1 µM (% DMSO): 94.0 % DMSO
Expanded OPCs; [11]
  10 µM (% DMSO): 85.3 % DMSO

## CNNCc1ccc(C(=O)NC(C)C)cc1 [Procarbazine]
[1]; [2]
  activation at 2 µM: 0.13%
[1]; [3]
  activation at 10 µM: -31.6%
Expanded OPCs; [4]
  viability at 0.1 µM: 82.3%
Expanded OPCs; [5]
  viability at 1 µM: 87.2%
Expanded OPCs; [6]
  viability at 10 µM: 96.6%

## CC(C)NCC(O)COc1ccc(CCOCC2CC2)cc1 (stereo not shown) [Betaxolol, reference compound]
[1]; [2]
  activation at 2 µM: 32.8%
[1]; [3]
  activation at 10 µM: 51.8%
[1]; Rattus norvegicus
  EC50: 4.2 µM
[1]
  hit in OL differentiation assay, MRF-TMC: ●
Expanded OPCs; [12]
  viability at 0.1 µM: 102%
Expanded OPCs; [13]
  viability at 1 µM: 97.8%
Expanded OPCs; [14]
  viability at 10 µM: 104%

## C[C@]12CCC(=O)C=C1CC[C@@H]1[C@@H]2CC[C@@]2(C)[C@H]1CC[C@]2(C)O [Methyltestosterone]
[1]; [2]
  activation at 2 µM: -8.1%
[1]; [3]
  activation at 10 µM: -36.5%
Expanded OPCs; [4]
  viability at 0.1 µM: 103%
Expanded OPCs; [5]
  viability at 1 µM: 112%
Expanded OPCs; [6]
  viability at 10 µM: 102%

## CCOc1cc(CC(=O)N[C@@H](CC(C)C)c2ccccc2N2CCCCC2)ccc1C(=O)O [Repaglinide]
[1]; [15]
  activation at 2 µM: 13.8%
[1]; [16]
  activation at 10 µM: -23.7%
Expanded OPCs; [12]
  viability at 0.1 µM: 90.5%
Expanded OPCs; [13]
  viability at 1 µM: 96.8%
Expanded OPCs; [14]
  viability at 10 µM: 125%

## C[N+]1(C)CCN(c2ccccc2)CC1 [DMPP, dimethylphenylpiperazinium, reference compound]
[1]; [2]
  activation at 2 µM: 40.6%
[1]; [3]
  activation at 10 µM: 54.3%
[1]; Rattus norvegicus
  EC50: 13 µM
[1]
  hit in OL differentiation assay, MRF-TMC: ●
Expanded OPCs; [12]
  viability at 0.1 µM: 101%
Expanded OPCs; [13]
  viability at 1 µM: 89.5%
Expanded OPCs; [14]
  viability at 10 µM: 111%

## O=C1C(CC[S+]([O-])c2ccccc2)C(=O)N(c2ccccc2)N1c1ccccc1 (stereo not shown) [Sulfinpyrazone]
[1]; [15]
  activation at 2 µM: -3.8%
[1]; [16]
  activation at 10 µM: -6.8%
Expanded OPCs; [12]
  viability at 0.1 µM: 88.8%
Expanded OPCs; [13]
  viability at 1 µM: 92.9%
Expanded OPCs; [14]
  viability at 10 µM: 88.2%

## CC(COc1ccccc1)N(CCCl)Cc1ccccc1 (stereo not shown) [Phenoxybenzamine]
[1]; [15]
  activation at 2 µM: -11%
[1]; [16]
  activation at 10 µM: 35.4%
Expanded OPCs; [9]
  0.1 µM (% DMSO): 109.6 % DMSO
Expanded OPCs; [10]
  1 µM (% DMSO): 116.7 % DMSO
Expanded OPCs; [11]
  10 µM (% DMSO): 142.4 % DMSO

## Nc1nc(N)c2nc(-c3ccccc3)c(N)nc2n1 [Triamterene]
[1]; [15]
  activation at 2 µM: 0.9%
[1]; [16]
  activation at 10 µM: -18.8%
Expanded OPCs; [12]
  viability at 0.1 µM: 94.9%
Expanded OPCs; [13]
  viability at 1 µM: 96.5%
Expanded OPCs; [14]
  viability at 10 µM: 95.3%

## CC(=O)O[C@]1(C(C)=O)CC[C@H]2[C@@H]3C=C(C)C4=CC(=O)CC[C@]4(C)[C@H]3CC[C@@]21C [Megestrol acetate]
[1]; [2]
  activation at 2 µM: -21.6%
[1]; [3]
  activation at 10 µM: -29.4%
Expanded OPCs; [4]
  viability at 0.1 µM: 97.2%
Expanded OPCs; [5]
  viability at 1 µM: 89.3%
Expanded OPCs; [6]
  viability at 10 µM: 96.5%

## O=c1n(CCCN2CCN(c3cccc(Cl)c3)CC2)nc2ccccn12 [Trazodone]
[1]; [2]
  activation at 2 µM: -7.5%
[1]; [3]
  activation at 10 µM: 55%
Expanded OPCs; [4]
  viability at 0.1 µM: 90.8%
Expanded OPCs; [5]
  viability at 1 µM: 78.9%
Expanded OPCs; [6]
  viability at 10 µM: 84.9%

## COC(=O)Nc1nc2cc(C(=O)c3ccc(F)cc3)ccc2[nH]1 [Flubendazole]
[1]; [17]
  activation at 0.4 µM: -62.9%
[1]; [2]
  activation at 2 µM: -188%
Expanded OPCs; [4]
  viability at 0.1 µM: 74.4%
Expanded OPCs; [5]
  viability at 1 µM: 69.3%
Expanded OPCs; [6]
  viability at 10 µM: 43.7%

## CN1CCCC(n2nc(Cc3ccc(Cl)cc3)c3ccccc3c2=O)CC1 (stereo not shown) [Azelastine]
[1]; [17]
  activation at 0.4 µM: 1%
[1]; [2]
  activation at 2 µM: -19%
Expanded OPCs; [4]
  viability at 0.1 µM: 90.1%
Expanded OPCs; [5]
  viability at 1 µM: 51.5%
Expanded OPCs; [6]
  viability at 10 µM: 12%

## Cn1cc[nH]c1=S [Methimazole]
[1]; [7]
  activation at 2 µM: -0.16%
[1]; [8]
  activation at 10 µM: -20.4%
Expanded OPCs; [9]
  0.1 µM (% DMSO): 88.3 % DMSO
Expanded OPCs; [10]
  1 µM (% DMSO): 90.9 % DMSO
Expanded OPCs; [11]
  10 µM (% DMSO): 85.4 % DMSO

## C=C[C@H]1C[N@@]2CC[C@H]1C[C@H]2[C@H](O)c1ccnc2ccc(OC)cc12 [Quinine]
[1]; [7]
  activation at 2 µM: -22.9%
[1]; [8]
  activation at 10 µM: -65.5%
Expanded OPCs; [9]
  0.1 µM (% DMSO): 93.4 % DMSO
Expanded OPCs; [10]
  1 µM (% DMSO): 87.0 % DMSO

## O=C(NCC1CCCCN1)c1cc(OCC(F)(F)F)ccc1OCC(F)(F)F (stereo not shown) [Flecainide]
[1]; Rattus norvegicus, test compound at 0.08 uM, MBP expression relative to quetiapine, NCC library screen, sheet "All OLga data", read-out: 0.08 uM (% Quet)
  activation at 0.08 µM: 2.3%
Expanded OPCs; [9]
  0.1 µM (% DMSO): 64.1 % DMSO
Expanded OPCs; [10]
  1 µM (% DMSO): 9.0 % DMSO
Expanded OPCs; [11]
  10 µM (% DMSO): 7.7 % DMSO

Source: paper PMC5011342, “A high throughput drug screening assay to identify compounds that promote oligodendrocyte differentiation using acutely dissociated and purified oligodendrocyte precursor cells” (BMC Research Notes, 2016)
